43 compounds from patent US7786116B2, “2-amino-quinoline derivatives useful as inhibitors of β-secretase (BACE)” (Janssen Pharmaceutica N.V., priority 2008, dated 2010) can be followed below.

pIC50: −log10 of the molar value. A value given as a limit tells only on which side of the number the result lay.

The assay has as its target human BACE-1 (Homo sapiens, UniProt P56817). As to the kind of experiment: in vitro BACE Assay-1 (CEREP, fluorogenic substrate). It counts as biochemical. The note with it: for % Inh @ 1 μM / inhibition at 1 µM: test compound at 1 μM; for % Inh @ 10 μM / inhibition at 10 µM: test compound at 10 μM; for pIC50: recombinant enzyme, pH 4.5, 60 min at 37° C. On the procedure: This assay was run by CEREP (Catalog Ref. 761-B, Referred to SOP No. 1C131; ERMOLIEFF, J., LOY, J. A., KOELSCH, G. and TANG, J., Proteolytic activation of recombinant pro-memapsin 2 (pro-BACE) studied with new fluorogenic substrates, Biochemistry, (2000) Vol. 39, p. 12450).
More specifically the assay, run at 50 μL in a 96 well plate, evaluated the effect of test compound on the activity of the human BACE-1 quantified by measuring the formation of Mca-S-E-V-N-L-NH2 from Mca-S-E-V-N-L-D-A-E-F-R-K(Dnp)-R—R—NH2, using a recombinant enzyme.
The test compound, reference compound or water (control) was added to a buffer containing 0.09 M sodium acetate (pH 4.5) and 0.25 μg BACE-1. Compound interference with the fluorimetric detection method due to autofluorescence was then checked by measurements at the wavelengths defined to evaluate the enzyme activity. Thereafter, the reaction was initiated by adding 7.5 μM of the substrate Mca-S-E-V-N-L-D-A-E-F-R-K(Dnp)-R—R—NH2 and the mixture was incubated for 60 min at 37° C. For control basal measurement, the substrate was omitted from the reaction mixture. Immediately after the incubation, the fluorescence intensity emitted by the reaction product Mca-S-E-V-N-L-NH2 was measured at λex=320 nm and λem=405 nm using a microplate reader (Ultra, Tecan). The standard inhibitory reference compound was OM99-2, which was tested in each experiment at several concentrations to obtain an inhibition curve from which its IC50 value was calculated.
Representative compounds of the present invention were tested in the assay as described above, with results as listed in Table 3, below.

Chain of human BACE-1 (P56817 46-501): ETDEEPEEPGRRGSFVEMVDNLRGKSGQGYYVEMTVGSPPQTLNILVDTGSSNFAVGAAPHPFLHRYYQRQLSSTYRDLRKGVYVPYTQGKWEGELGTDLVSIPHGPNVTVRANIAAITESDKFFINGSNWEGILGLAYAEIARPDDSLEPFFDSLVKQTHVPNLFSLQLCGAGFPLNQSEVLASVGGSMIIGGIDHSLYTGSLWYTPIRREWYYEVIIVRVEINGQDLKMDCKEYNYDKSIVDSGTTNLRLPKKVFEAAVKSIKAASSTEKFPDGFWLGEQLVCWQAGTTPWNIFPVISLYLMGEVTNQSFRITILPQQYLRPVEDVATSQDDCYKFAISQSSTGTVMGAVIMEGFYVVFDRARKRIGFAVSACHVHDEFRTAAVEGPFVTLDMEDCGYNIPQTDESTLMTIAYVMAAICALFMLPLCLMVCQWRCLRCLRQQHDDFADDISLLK

Consider `CN(C(=O)CCC(c1cc2cc(-c3ccccc3F)ccc2nc1N)C1CCCCC1)C1CCCCC1` (single isomer, unassigned) [Compound 11], for which the “% Inh @ 1 μM” value was found to be 28%.

Consider `Nc1nc2ccc(-c3ccccc3F)cc2cc1C(CCC(=O)NCCO)C1CCOCC1` (centres unmarked) [Compound 1], for which the “% Inh @ 10 μM” value is 34%.

`Nc1nc2ccc(-c3ccccc3F)cc2cc1C(CCC(=O)NCC1CC1)C1CCOCC1` (centres unmarked) [Compound 2]: the “% Inh @ 10 μM” value was found to be 59%.

Regarding `CN(CCCC(c1cc2cc(-c3ccccc3F)ccc2nc1N)C1CCOCC1)CC1CC1` (centres unmarked) [Compound 3], the “% Inh @ 10 μM” value is on record as 35%.

Regarding `CN(CC1CC1)C(=O)CCC(c1cc2cc(-c3ccccc3F)ccc2nc1N)C1CCOCC1` (centres unmarked) [Compound 4], the “% Inh @ 10 μM” value is 71%.

In general, pIC50 refers to the negative decadic logarithm of the IC50, by convention in mol/L. What is called inhibition is the change of the read-out against control, counted positive when it falls. Turning to `CC(C)(CO)CNCCCC(c1cc2cc(-c3ccccc3F)ccc2nc1N)C1CCOCC1` (centres unmarked) [Compound 6], the pIC50 was below 5.30 and the inhibition at 10 µM is 43%.

Take `CC(C)(C)CCNC(=O)CCC(c1cc2cc(-c3ccccc3F)ccc2nc1N)C1CCOCC1` (centres unmarked) [Compound 7]: the pIC50 was 6.59 and the inhibition at 10 µM stood at 83%.

As to `CC(C)(C)OCCNCCCC(c1cc2cc(-c3ccccc3F)ccc2nc1N)C1CCOCC1` (centres unmarked) [Compound 10], the pIC50 is 6.08 and the inhibition at 10 µM was 47%.

For the compound `Nc1nc2ccc(-c3ccccc3F)cc2cc1C(CCC(=O)NCC1CCCCC1)C1CCOCC1` (centres unmarked) [Compound 12], the pIC50 is 6.46 and the inhibition at 10 µM was determined as 74.5%.

Regarding `CN(CCCC(c1cc2cc(-c3ccccc3F)ccc2nc1N)C1CCOCC1)CC1CCCCC1` (centres unmarked) [Compound 13], the “% Inh @ 10 μM” value is recorded as 77%.

As for `CC(C)(C)OCCNC(=O)CCC(c1cc2cc(-c3ccccc3F)ccc2nc1N)C1CCOCC1` (centres unmarked) [Compound 15], the pIC50 is 6.27 and the inhibition at 10 µM was 113%.

`COc1cc2nc(N)c(C(CCCNCCC(C)(C)C)C3CCOCC3)cc2cc1-c1ccccc1F` (centres unmarked) [Compound 16]: the pIC50 was below 6.21 and the inhibition at 10 µM amounted to 88%.

For `COc1cc2nc(N)c(C(CCn3cc(C(C)(C)C)nn3)C3CCOCC3)cc2cc1-c1ccccc1F` (centres unmarked) [Compound 17], the pIC50 is 5.85 and the inhibition at 10 µM stood at 73%.

For `CN(CC1CCCCC1)C(=O)CCC(c1cc2cc(-c3ccccc3F)ccc2nc1N)C1CCOCC1` (centres unmarked) [Compound 18], the “% Inh @ 10 μM” value was found to be 77%.

Turning to `COc1cc2nc(N)c(C(CCC(=O)NCCC(C)(C)C)C3CCOCC3)cc2cc1-c1ccccc1F` (centres unmarked) [Compound 19], the “% Inh @ 10 μM” value is listed as 14%.

As for `COc1ccccc1-c1cc2cc(C(CCn3cc(C(C)(C)C)nn3)C3CCOCC3)c(N)nc2cc1OC` (centres unmarked) [Compound 20], the pIC50 was 6.05 and the inhibition at 10 µM was determined as 92%.

Consider `Nc1nc2ccc(-c3cccs3)cc2cc1C(CCC(=O)NC12CC3CC(CC(C3)C1)C2)C1CCOCC1` (centres unmarked) [Compound 21], for which the pIC50 is 6.16 and the inhibition at 1 µM stood at 87%.

Turning to `CCOc1cc2nc(N)c(C(CCn3cc(C(C)(C)C)nn3)C3CCOCC3)cc2cc1-c1ccccc1F` (centres unmarked) [Compound 22, 3-[3-(4-tert-Butyl-[1,2,3]triazol-1-yl)-1-(tetrahydro-pyran-4-yl)-propyl]-7-ethoxy-6-(2-fluoro-phenyl)-quinolin-2-ylamine], the pIC50 was 6.82 and the inhibition at 10 µM is 65%.

Regarding `Nc1nc2ccc(-c3ccccc3F)cc2cc1C(CCC(=O)NC12CC3CC(CC(C3)C1)C2)C1CCOCC1` (centres unmarked) [Compound 23], the pIC50 is 6.24 and the inhibition at 1 µM worked out at 97%.

Turning to `Cn1ccnc1CN(CCC(C)(C)C)C(=O)CCC(c1cc2cc(-c3ccc[nH]3)ccc2nc1N)C1CCOCC1` (centres unmarked) [Compound 24], the pIC50 is 5.85 and the “% Inh @ 10 μM” value was 93%.

Turning to `Cn1ccnc1CN(CCC(C)(C)C)C(=O)CCC(c1cc2cc(-c3ccccc3)ccc2nc1N)C1CCOCC1` (centres unmarked) [Compound 25], the pIC50 was 6.49 and the “% Inh @ 10 μM” value stood at 72%.

With `Cn1ccnc1N(CCC(C)(C)C)C(=O)CCC(c1cc2cc(-c3ccccn3)ccc2nc1N)C1CCOCC1` (centres unmarked) [Compound 27], the pIC50 is 5.74 and the inhibition at 10 µM came to 91%.

For the compound `CC(C)(C)CCN(CCCC(c1cc2cc(-c3ccccc3F)ccc2nc1N)C1CCOCC1)Cc1ccccn1` (centres unmarked) [Compound 28], the pIC50 is 6.06 and the inhibition at 10 µM amounted to 74%.

Turning to `Cn1ccnc1CN(CCCC(c1cc2cc(-c3ccccc3F)ccc2nc1N)C1CCOCC1)CCC(C)(C)C` (centres unmarked) [Compound 29], the negative logarithm of the IC50 (pIC50) is 5.82 and the “% Inh @ 1 μM” value is listed as 54%.

In the case of `Cn1ccnc1CN(CCC(C)(C)C)C(=O)CCC(c1cc2cc(-c3cccs3)ccc2nc1N)C1CCOCC1` (centres unmarked) [Compound 31, 4-(2-Amino-6-thiophen-2-yl-quinolin-3-yl)-N-(3,3-dimethyl-butyl)-N-(1-methyl-1H-imidazol-2-ylmethyl)-4-(tetrahydro-pyran-4-yl)-butyramide], the pIC50 is 6.38, the inhibition at 1 µM is 79% and the inhibition at 10 µM is 98%.

`CC(C)(C)CCN(Cc1ccccc1)C(=O)CCC(c1cc2cc(-c3ccccc3F)ccc2nc1N)C1CCOCC1` (centres unmarked) [Compound 34]: the pIC50 was 6.41 and the inhibition at 10 µM was 68%.

As for `CC(C)(C)CCN(Cc1ccccn1)C(=O)CCC(c1cc2cc(-c3ccccc3F)ccc2nc1N)C1CCOCC1` (centres unmarked) [Compound 35], the pIC50 is 6.48 and the inhibition at 10 µM was 116%.

Consider `COc1ccccc1-c1ccc2nc(N)c(C(CCCN(CCC(C)(C)C)c3nccn3C)C3CCOCC3)cc2c1` (centres unmarked) [Compound 36], for which the pIC50 is 6.30 and the inhibition at 1 µM was determined as 76%.

For the compound `Cn1ccnc1CN(CCC(C)(C)C)C(=O)CCC(c1cc2cc(-c3ccc(F)cc3)ccc2nc1N)C1CCOCC1` (centres unmarked) [Compound 37], the “% Inh @ 10 μM” value is recorded as 82%.

As for `Cn1ccnc1N(CCC(C)(C)C)C(=O)CCC(c1cc2cc(-c3cccc(F)c3)ccc2nc1N)C1CCOCC1` (centres unmarked) [Compound 38], the pIC50 was 6.33 and the inhibition at 10 µM is 69%.

As to `Cn1ccnc1CN(CCC(C)(C)C)C(=O)CCC(c1cc2cc(-c3ccccc3F)ccc2nc1N)C1CCOCC1` (centres unmarked) [Compound 39], the pIC50 was 6.46 and the “% Inh @ 1 μM” value was 93%.

Regarding `Nc1nc2ccc(-c3ccccc3F)cc2cc1C(CCC(=O)N(CCN1CCCC1)C1CCCCC1)C1CCOCC1` (centres unmarked) [Compound 41], the pIC50 was 6.35 and the inhibition at 10 µM turned out to be 65%.

As for `CC(C)(C)CCN(Cc1cncs1)C(=O)CCC(c1cc2cc(-c3ccccc3F)ccc2nc1N)C1CCOCC1` (centres unmarked) [Compound 42], the pIC50 was 6.49 and the inhibition at 10 µM was determined as 65%.

In the case of `CC(C)(C)CCN(CCCC(c1cc2cc(-c3ccccc3F)ccc2nc1N)C1CCOCC1)CCN1CCOCC1` (centres unmarked) [Compound 43, 3-[4-[(3,3-Dimethyl-butyl)-(2-morpholin-4-yl-ethyl)-amino]-1-(tetrahydro-pyran-4-yl)-butyl]-6-(2-fluoro-phenyl)-quinolin-2-ylamine], the inhibition at 10 µM was 78%.

For `COc1ccccc1-c1ccc2nc(N)c(C(CCC(=O)N(CCC(C)(C)C)Cc3nccn3C)C3CCOCC3)cc2c1` (centres unmarked) [Compound 45], the pIC50 is 6.28 and the “% Inh @ 1 μM” value stood at 94%.

For the compound `CC(C)(C)CCN(CCN1CCOCC1)C(=O)CCC(c1cc2cc(-c3ccccc3F)ccc2nc1N)C1CCOCC1` (centres unmarked) [Compound 47, 4-[2-Amino-6-(2-fluoro-phenyl)-quinolin-3-yl]-N-(3,3-dimethyl-butyl)-N-(2-morpholin-4-yl-ethyl)-4-(tetrahydro-pyran-4-yl)-butyramide], the pIC50 is 6.43 and the inhibition at 10 µM turned out to be 58%.

Take `Cn1ccnc1CN(CCC(C)(C)C)C(=O)CCC(c1cc2cc(-c3cccc4cc[nH]c34)ccc2nc1N)C1CCOCC1` (centres unmarked) [Compound 49]: the “% Inh @ 10 μM” value was 99%.

Turning to `CCOc1ccc(-c2ccc3nc(N)c(C(CCC(=O)N(CCC(C)(C)C)Cc4nccn4C)C4CCOCC4)cc3c2)cc1` (centres unmarked) [Compound 50], the “% Inh @ 10 μM” value was determined as 22%.

On to `CCOc1ccccc1-c1ccc2nc(N)c(C(CCC(=O)N(CCC(C)(C)C)Cc3nccn3C)C3CCOCC3)cc2c1` (centres unmarked) [Compound 51, 4-[2-Amino-6-(2-ethoxy-phenyl)-quinolin-3-yl]-N-(3,3-dimethyl-butyl)-N-(1-methyl-1H-imidazol-2-ylmethyl)-4-(tetrahydro-pyran-4-yl)-butyramide], for which the pIC50 was 6.49 and the inhibition at 10 µM was 99%.

On to `COc1cc2nc(N)c(C(CCCN(CCN3CCOCC3)C3CCCCC3)C3CCOCC3)cc2cc1-c1ccccc1F` (centres unmarked) [Compound 52], for which the pIC50 is 5.44 and the inhibition at 10 µM worked out at 55%.

As to `COc1cc2nc(N)c(C(CCC(=O)N(CCN3CCOCC3)C3CCCCC3)C3CCOCC3)cc2cc1-c1ccccc1F` (centres unmarked) [Compound 53], the pIC50 was 5.66 and the inhibition at 10 µM is 55%.

For the compound `Cn1ccnc1CN(CCC(C)(C)C)C(=O)CCC(c1cc2cc(-c3cccc(C(F)(F)F)c3)ccc2nc1N)C1CCOCC1` (centres unmarked) [Compound 54], the “% Inh @ 10 μM” value was 8%.

In the case of `Cn1ccnc1CN(CCC(C)(C)C)C(=O)CCC(c1cc2cc(-c3ccccc3C(F)(F)F)ccc2nc1N)C1CCOCC1` (centres unmarked) [Compound 55], the negative logarithm of the IC50 (pIC50) was 5.62 and the “% Inh @ 10 μM” value is 90%.
